Measurements taken from US10335363B2, “Skin care composition and method of making the same” (The Procter & Gamble Company, priority 2015, dated 2019).

Test system: interleukin-18 (IL-18)
Test: Skin sensitization potential (IL-18 production in HEK)
Type: cell-based, human
Conditions: fold change of IL-18 vs vehicle control, HEK lysates, 16 hours
Text: It is possible for a material to not be cytotoxic, and yet be unsafe due to provoking an allergic reaction upon skin contact. Typically, initial exposure to an allergen sensitizes the immune system, and following exposures cause an allergic response. Recent progress in understanding the mechanisms of skin sensitization identified interleukin-18 (IL-18) production in normal human epidermal keratinocytes (HEK) as a useful biomarker for skin contact sensitization (Corsini, et al., “Use of IL-18 Production In a Human Keratinocyte Cell Line to Discriminate Contact Sensitizers from Irritants and Low Molecular Weight Respiratory Allergens.” Toxicol In Vitro. 2009 August; 23(5):789-96; Teunis, et al., “Transfer of a Two-tiered Keratinocyte Assay: IL-18 Production by NCTC2544 to Determine the Skin Sensitizing Capacity and Epidermal Equivalent Assay to Determine Sensitizer Potency.” Toxicol In Vitro. 2013 April; 27(3):1135-50). […] Thus, IL-18 production in HEK was evaluated to determine sensitization potential.
Normal human adult epidermal keratinocytes (HEK) were cultured as described above for the cytoxicity evaluation. […] The cell lysates were collected, and IL-18 was quantified using Human IL-18 ELISA Kit (Catalog #7620, produced by MBL International Co., Woburn, Mass., USA). […] Fold changes of IL-18 levels between test articles and respective vehicle controls were calculated and compared to pPD. […]

Nc1ccc(N)cc1 [benchmark sensitizer, para-phenylenediamine]
IL18 Maximum fold: 7.8 fold)
